According to US12649751B2 (Arcus Biosciences, Inc., priority 2022, dated 2026):
Where two headings read alike, the source gives them in different places.

Key:
HPK1 = HPK1 (Homo sapiens, UniProt Q92918); test: HPK1 Biochemical Assay (ADP-Glo luminescence; low ATP 10 μM or high ATP 200 μM)
[1] = test system: p-SLP-76 (Ser376) in Jurkat cells; test: pSLP76 Cellular Assay (AlphaLISA SureFire Ultra p-SLP-76 (Ser376), anti-CD3 activated Jurkat cells); assay type: cell-based; details: Homo sapiens, read-out: Cellular Potency
Experimental: pSLP76 cellular assay was performed using Jurkat cells and the AlphaLISA SureFire Ultra p-SLP-76 (Ser376) Assay Kit (PerkinElmer). Dose-response assays were performed in Greiner® Low Volume 384-well assay plates containing 200 nL of 22 serial 2-fold compound dilutions using Bravo and Echo. Jurkat cells were grown in RPMI-1640 supplemented with 10% FBS and PSG. The day prior to the assay, the cells were collected, and serum starved overnight in Opti-MEM. The day of the assay, the cells were collected and resuspended in HBSS. 100,000 cells/well were added to the compound plates and after a short spin, the plates were incubated at 37° C. for 1 h. The cells were activated by adding 10 μL of 0.025 mg/ml anti-CD3. Plates were then incubated at 37° C. for 45 min. Stimulation was terminated by adding […], followed by a brief centrifugation and 60 min of shaking at 300 rpm. Cell lysates (10 μL) were transferred to 384-well White Opti-plates and the samples were processed according to the manufacturer's directions. The fluorescence signal from pSLP76 was measured at 570 nm using Envision plate reader. IC50 values were determined by fitting the data to a standard 4-parameter logistic equation. The results are summarized in the Cellular Potency columns in Tables 4 and 5 below (Cellular Potency).

[2] = 2 nM HPK1, 10 μM ATP, read-out: Biochemical Potency (low ATP)
[3] = Jurkat cells, anti-CD3 stimulation, pSLP76
[4] = HPK1 ADP-Glo assay, high ATP (200 μM ATP, 5 nM HPK1), read-out: Biochemical Potency (high ATP)
[5] = pSLP76 (Ser376) AlphaLISA, anti-CD3 activated Jurkat cells
[6] = HPK1 ADP-Glo assay, low ATP (10 μM ATP, 2 nM HPK1), read-out: Biochemical Potency (low ATP)

Sequence of HPK1 (Q92918 whole entry, species assumed): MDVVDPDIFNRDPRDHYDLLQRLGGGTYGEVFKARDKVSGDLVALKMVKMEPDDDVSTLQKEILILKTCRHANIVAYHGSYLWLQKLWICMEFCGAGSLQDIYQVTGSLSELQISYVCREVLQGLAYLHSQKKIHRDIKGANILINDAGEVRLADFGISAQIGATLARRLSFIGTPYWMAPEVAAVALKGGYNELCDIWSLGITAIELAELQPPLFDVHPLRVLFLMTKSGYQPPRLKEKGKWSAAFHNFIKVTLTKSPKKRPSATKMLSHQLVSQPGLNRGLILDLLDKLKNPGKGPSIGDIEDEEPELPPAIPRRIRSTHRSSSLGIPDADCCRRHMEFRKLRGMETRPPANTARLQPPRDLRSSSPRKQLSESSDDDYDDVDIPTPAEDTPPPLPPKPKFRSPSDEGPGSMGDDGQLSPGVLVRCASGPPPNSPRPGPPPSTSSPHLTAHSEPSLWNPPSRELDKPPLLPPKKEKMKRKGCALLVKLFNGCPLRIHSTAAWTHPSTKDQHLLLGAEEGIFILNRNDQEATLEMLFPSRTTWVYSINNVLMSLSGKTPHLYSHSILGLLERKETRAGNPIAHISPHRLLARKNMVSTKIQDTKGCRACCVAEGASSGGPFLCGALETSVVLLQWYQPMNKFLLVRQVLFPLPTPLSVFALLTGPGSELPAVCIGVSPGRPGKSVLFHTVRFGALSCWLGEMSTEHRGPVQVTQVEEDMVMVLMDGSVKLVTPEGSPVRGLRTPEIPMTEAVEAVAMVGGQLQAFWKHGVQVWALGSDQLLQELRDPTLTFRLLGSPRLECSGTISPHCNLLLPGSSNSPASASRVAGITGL

| IC50 (HPK1; [2]) [µM] | IC50 [1, 3] [µM] | IC50 (HPK1; [4]) [µM] | IC50 [1, 5] [µM] | SMILES | also measured |
| --- | --- | --- | --- | --- | --- |
| – | – | < 0.1 | 0.1 to 1 | CCN1C[C@@H]2C[C@H]1CN2c1nc(C)cc(Nc2cc3nc(-c4cccc(C(=O)N5CCC[C@@H](C)C5)c4)sc3cn2)n1 [Example 511] | – |
| – | – | < 0.1 | 0.1 to 1 | Cc1cccnc1-c1nc2cc(Nc3cc(C4CCC(O)CC4)nc(N4C[C@@H]5C[C@H]4CN5C)n3)ncc2s1 (stereo partly drawn) [Example 507] | – |
| – | – | 0.1 to 1 | 1 to 5 | Cc1cc(Nc2cc3nc(-c4ccc(=O)n(C)c4)sc3cn2)nc(N2C[C@@H]3C[C@H]2CN3C)n1 [Example 391] | – |
| – | – | < 0.1 | 0.1 to 1 | Cc1cc(Nc2cc3nc(-c4cccc(C(=O)N5CCC[C@H]5C)c4)sc3cn2)nc(N2C[C@@H]3C[C@H]2CN3CCO)n1 [Example 550] | – |
| – | – | – | 5 to 25 | Fc1cccc(F)c1-c1nc2cc(Nc3cc4c(cn3)CCNC4)ncc2s1 [Example 486] | IC50 (HPK1; [6]): 0.1 to 1 µM |
| – | – | < 0.1 | 1 to 5 | CN1C[C@@H]2C[C@H]1CN2c1nccc(Nc2cc3nc(-c4cccc(NS(C)(=O)=O)c4)sc3cn2)n1 [Example 413] | IC50 (HPK1; [6]): < 0.1 µM |
| – | – | < 0.1 | < 0.1 | CCN1C[C@@H]2C[C@H]1CN2c1nc(C)cc(Nc2cc3nc(-c4cccc(C(=O)N5CC[C@H](C)C5)c4)sc3cn2)n1 [Example 533] | – |
| – | – | < 0.1 | < 0.1 | CCN1C[C@@H]2C[C@H]1CN2c1nc(C)cc(Nc2cc3nc(-c4cccc(C(=O)N[C@H](C)C5CC5)c4)sc3cn2)n1 [Example 524] | – |
| – | – | < 0.1 | 0.1 to 1 | CCN1C[C@@H]2C[C@H]1CN2c1nc(C)cc(Nc2cc3nc(-c4cc(C)cc(N5C(=O)CC[C@H]5C)c4)sc3cn2)n1 [Example 466] | – |
| – | – | < 0.1 | < 0.1 | Cc1cc(Nc2cc3nc(-c4cc(C(=O)N(C)C)cc(C(C)C)c4)sc3cn2)nc(N2C[C@@H]3C[C@H]2CN3CCO)n1 [Example 551] | – |
| – | – | < 0.1 | 0.1 to 1 | CCN1C[C@@H]2C[C@H]1CN2c1nc(C)cc(Nc2cc3nc(-c4cccc(C(=O)N5CCC(C)(C)C5)c4)sc3cn2)n1 [Example 521] | – |
| – | – | < 0.1 | 0.1 to 1 | Cc1cc(Nc2cc3nc(-c4ccnc(N5CCO[C@@H](C)C5)c4)sc3cn2)nc(N2C[C@@H]3C[C@H]2CN3CCO)n1 [Example 446] | – |
| – | – | < 0.1 | 0.1 to 1 | c1cnn(-c2nc3cc(Nc4cncc(N5C[C@@H]6C[C@H]5CN6)n4)ncc3s2)c1 [Example 430] | IC50 (HPK1; [6]): < 0.1 µM |

The next lines start with the compound.

| SMILES | IC50 (HPK1; [2]) [µM] | IC50 [1, 3] [µM] | IC50 (HPK1; [4]) [µM] | IC50 [1, 5] [µM] | also measured |
| --- | --- | --- | --- | --- | --- |
| CN1C[C@@H]2C[C@H]1CN2c1nccc(Nc2cc3nc(-c4cccc(N5CC[C@H](O)C5)c4)sc3cn2)n1 [Example 123, (3S)-1-{3-[6-({2-[(1S,4S)-5-Methyl-2,5-diazabicyclo[2.2.1]heptan-2-yl]pyrimidin-4-yl}amino)-[1,3]thiazolo[5,4-c]pyridin-2-yl]phenyl}pyrrolidin-3-ol] | < 0.1 | 1 to 5 | – | – | IC50 (HPK1; 5 nM HPK1, 200 μM ATP, read-out: Biochemical Potency (high ATP)): < 0.1 µM |
| Cc1ccc(Nc2cc3nc(-c4ncccc4C)sc3cn2)nc1CN1CCC[C@H]1C [Example 44, 5-Methyl-N-[2-(3-methylpyridin-2-yl)-[1,3]thiazolo[5,4-c]pyridin-6-yl]-6-{[(2R)-2-methylpyrrolidin-1-yl]methyl}pyridin-2-amine] | < 0.1 | > 5 | – | – | – |
| Cc1cc(Nc2cc3nc(-c4cnn(C)c4C#N)sc3cn2)nc(N2C[C@@H]3C[C@H]2CN3C)n1 [Example 366] | – | – | < 0.1 | 0.1 to 1 | – |
| CCN1C[C@@H]2C[C@H]1CN2c1nc(C)cc(Nc2cc3nc(-c4cnn(Cc5ccccc5)c4)sc3cn2)n1 [Example 336] | – | – | < 0.1 | 0.1 to 1 | – |
| Cc1cccnc1-c1nc2cc(Nc3ccc(F)c(N4C[C@@H]5C[C@H]4CN5)n3)ncc2s1 [Example 83, 6-[(1S,4S)-2,5-Diazabicyclo[2.2.1]heptan-2-yl]-5-fluoro-N-[2-(3-methylpyridin-2-yl)-[1,3]thiazolo[5,4-c]pyridin-6-yl]pyridin-2-amine] | < 0.1 | 0.1 to 1 | – | – | – |
| Cc1cc(Nc2cc3nc(-c4cnn5ccccc45)sc3cn2)nc(N2C[C@@H]3C[C@H]2CN3C)n1 [Example 386] | – | – | < 0.1 | 1 to 5 | – |
| Cc1ccc(Nc2cc3nc(-c4c(F)cccc4F)sc3cn2)nc1CN(C)C [Example 46, N-[2-(2,6-Difluorophenyl)-[1,3]thiazolo[5,4-c]pyridin-6-yl]-6-[(dimethylamino)methyl]-5-methylpyridin-2-amine] | < 0.1 | 1 to 5 | – | – | – |
| Cc1cccc(C)c1-c1nc2cc(Nc3ccc(N4CCOCC4)c(CN(C)C)n3)ncc2s1 [Example 13, 6-[(Dimethylamino)methyl]-N-[2-(2,6-dimethylphenyl)-[1,3]thiazolo[5,4-c]pyridin-6-yl]-5-(morpholin-4-yl)pyridin-2-amine] | < 0.1 | 0.1 to 1 | – | – | – |
| COc1cccc(F)c1-c1nc2cc(Nc3cccc(N4C[C@@H]5C[C@H]4CN5C)n3)ncc2s1 [Example 80, N-[2-(2-Fluoro-6-methoxyphenyl)-[1,3]thiazolo[5,4-c]pyridin-6-yl]-6-[(1S,4S)-5-methyl-2,5-diazabicyclo[2.2.1]heptan-2-yl]pyridin-2-amine] | < 0.1 | 0.1 to 1 | – | – | – |
| Cc1cc(Nc2cc3nc(-c4cnn(CC(F)F)c4)sc3cn2)nc(N2C[C@@H]3C[C@H]2CN3C)n1 [Example 375] | – | – | < 0.1 | 0.1 to 1 | – |
| Cc1cccc(F)c1-c1nc2cc(Nc3ccc(N4CCOCC4)c(CN4CCCS4(=O)=O)n3)ncc2s1 [Example 30, 2-[(6-{[2-(2-Fluoro-6-methylphenyl)-[1,3]thiazolo[5,4-c]pyridin-6-yl]amino}-3-(morpholin-4-yl)pyridin-2-yl)methyl]-1λ^6,2-thiazolidine-1,1-dione] | < 0.1 | 0.1 to 1 | – | – | – |
| Cc1ccnn1-c1nc2cc(Nc3ccc(C4CCOC4)c(CN4CCCC4)n3)ncc2s1 (stereo not drawn) [Example 256, N-[2-(5-Methyl-1H-pyrazol-1-yl)-[1,3]thiazolo[5,4-c]pyridin-6-yl]-5-(oxolan-3-yl)-6-[(pyrrolidin-1-yl)methyl]pyridin-2-amine] | < 0.1 | < 0.1 | – | – | – |
| Cc1cc(Nc2cc3nc(-c4cnn(C)c4)sc3cn2)nc(N2C[C@@H]3C[C@H]2CN3CCO)n1 [Example 301, 2-[(1S,4S)-5-(4-Methyl-6-{[2-(1-methyl-1H-pyrazol-4-yl)-[1,3]thiazolo[5,4-c]pyridin-6-yl]amino}pyrimidin-2-yl)-2,5-diazabicyclo[2.2.1]heptan-2-yl]ethan-1-ol] | – | – | < 0.1 | < 0.1 | – |
| CCN1C[C@@H]2C[C@H]1CN2c1nc(C)cc(Nc2cc3nc(-c4cncc(N5CCOC[C@H]5C)c4)sc3cn2)n1 [Example 297, 2-[(1S,4S)-5-ethyl-2,5-diazabicyclo[2.2.1]heptan-2-yl]-6-methyl-N-(2-{5-[(3R)-3-methylmorpholin-4-yl]pyridin-3-yl}-[1,3]thiazolo[5,4-c]pyridin-6-yl)pyrimidin-4-amine] | – | – | < 0.1 | 0.1 to 1 | – |
| Cc1cccnc1-c1nc2cc(Nc3cccc(N4C[C@@H]5C[C@H]4CN5C(C)C)n3)ncc2s1 [Example 116, N-[2-(3-Methylpyridin-2-yl)-[1,3]thiazolo[5,4-c]pyridin-6-yl]-6-[(1S,4S)-5-(propan-2-yl)-2,5-diazabicyclo[2.2.1]heptan-2-yl]pyridin-2-amine] | < 0.1 | 1 to 5 | – | – | – |
| CC(C)c1cccnc1-c1nc2cc(Nc3cccc(N4C[C@@H]5C[C@H]4CN5C)n3)ncc2s1 [Example 93, 6-[(1S,4S)-5-Methyl-2,5-diazabicyclo[2.2.1]heptan-2-yl]-N-{2-[3-(propan-2-yl)pyridin-2-yl]-[1,3]thiazolo[5,4-c]pyridin-6-yl}pyridin-2-amine] | < 0.1 | 0.1 to 1 | – | – | – |
| Cc1cc(Nc2cc3nc(-c4cnn(CC5CC5(F)F)c4)sc3cn2)nc(N2C[C@@H]3C[C@H]2CN3C)n1 (stereo partly drawn) [Example 380] | – | – | < 0.1 | 1 to 5 | – |
| CN1C[C@@H]2C[C@H]1CN2c1cccc(Nc2cc3nc(-n4cccn4)sc3cn2)n1 [Example 206, 6-[(1S,4S)-5-Methyl-2,5-diazabicyclo[2.2.1]heptan-2-yl]-N-[2-(1H-pyrazol-1-yl)-[1,3]thiazolo[5,4-c]pyridin-6-yl]pyridin-2-amine] | < 0.1 | 0.1 to 1 | – | – | – |
| Cc1cc(Nc2cc3nc(-c4cccc(C#Cc5cnn(C)c5)c4)sc3cn2)nc(N2C[C@@H]3C[C@H]2CN3CCO)n1 [Example 362] | – | – | < 0.1 | 1 to 5 | – |
| Cc1cc(Nc2cc3nc(-c4cccc(S(=O)(=O)N5CCCC5)c4)sc3cn2)nc(N2C[C@@H]3C[C@H]2CN3CCO)n1 [Example 344] | – | – | < 0.1 | < 0.1 | – |
